{"source": "patent US20070270392A1", "about": "“Use of a Cyclopentenone Prostaglandin for Delaying the Onset and/or Preventing the Continuation of Labour” (Imperial College Innovations Limited, priority 2003, published 2007)", "key": {"PPAR-γ": {"test_system": "PPAR-γ", "experiment": "Western immunoblot of PPAR-γ protein expression in myometrial and amnion cells", "assay_type": "cell-based, human", "protocol": "Western immunoblots of (A) nuclear and cytosolic protein extracts from myometrial and amnion cells with or without 15 min IL-1β stimulation, and (B) nuclear extracts of myometrial cells treated with 15d-PGJ2+/−IL-1b. Probing with antibody to PPARγ.\n(§1) Protein samples (20-70 μg) were mixed with Laemmli sample buffer (1:1) containing β-mercaptoethanol (5%), and boiled for 5 min. Proteins were then separated by SDS-PAGE (12-14% gels) and transferred onto PVDF membrane (Amersham Pharmacia Biotech). The membranes were blocked overnight in 5% non-fat milk prepared in PBS-T buffer, at 4° C. The blots were incubated with the primary antibody in 1% non-fat milk in PBS-T buffer for 1 h, and washed three times (10 min each) in PBS-T with vigorous shaking. The blots were then incubated with HRP-conjugated secondary antibody (diluted 1:2000 in 1% non-fat milk in PBS-T buffer) for 1 h and washed three times (10 min each) in PBS-T. Signal detection was achieved using enhanced chemi-luminescence (ECL plus system, Amersham Pharmacia Biotech) according to manufacturer's instructions.\n30-50 μg protein extracts were subjected to SDS-PAGE and Western immuno-blotting. Secondary antibodies were IgG-HRP and ECL Plus detection kit (Amersham Pharmacia Biotech, Amersham Place, Little Chalfont, Bucks, HP7 9NA) was used for visualisation."}, "NF-κB": {"test_system": "NF-κB", "experiment": "Western immunoblot of NF-κB activation (p65, p50, IκB) in amnion cells", "assay_type": "cell-based, human", "settings": "L−", "protocol": "Western immunoblots of nuclear or cytosolic protein extracts from (A) myometrial cells, (B) L− amnion cells, and (C) L+amnion cells treated with 15dPGJ2 or vehicle for 2 h+/−IL-1, stimulation (15 min). Blots probed with antibodies against p65, p50 or IκBα.\nPlacentae were obtained from patients at term either at elective Caesarean section prior to labour (L−) or following spontaneous labour onset and vaginal delivery (L+). Amnion cells were prepared as described in Bennett et al., (1989). Briefly, the amnion was separated from the placenta, washed 3× in PBS, cut into strips, and incubated in 0.51 mM EDTA in PBS for 15 min. The strips were washed in PBS 2× and digested with 2.5 mg/ml dispase in serum-free DMEM for 35 min at 37° C. The amnion was then shaken vigorously in DMEM, 10% FCS to dissociate the cells, the remaining strips discarded, and the cell suspension pelleted at 175 g for 10 min and cultured in DMEM, 10% FCS (Sigma), 1% L-glutamine, 1% penicillin-streptomycin.\nNuclear and cytosolic protein extracts were obtained from cultured amnion cells as described by Schreiber et al (1989). For nuclear/cytosolic fractionation, confluent cell monolayers were scraped and lysed using a buffer containing 10 mM HEPES, 10 mM KCl, 0.1 mM EDTA, 0.1 mM EGTA, 2 mM DTT, 1% (v/v) NP-40 and complete protease inhibitor tablets (CPIs, Roche), diluted to manufacturer's instructions. Cell lysates were incubated on ice for 10 min and NP-40 added to a final concentration of 1% (v/v). Lysates were vortexed for 10 secs and centrifuged for 30 secs at 4° C., 12000 g. The supernatants were retained as the cytosolic protein extracts. The pellets were resuspended in buffer containing 10 mM HEPES, 10 mM KCl, 0.1 mM EDTA, 0.1 mM EGTA, 2 mM DTT, 400 mM NaCl, 1% NP-40 (v/v) and CPIs. Samples were shaken vigorously for 15 min in an ice bath. The nuclear protein extracts were obtained in the supernatant following a 5 min centrifugation at 4° C., 12000 g.\nas §1, with “instructions. […]” for “instructions.”"}, "[1]": {"test_system": "LPS-induced inflammatory responses in placental homogenates", "experiment": "Mouse model of preterm labour: placental inflammatory responses after intrauterine LPS ± 15d-PGJ2", "assay_type": "in vivo, mice", "protocol": "Concentrations of IL-1 (in placental homogenates collected from gestation day 16 mice 6 hours after intrauterine injection of 250 μg LPS+vehicle or 250 μg LPS+4 μg 15d-PGJ2. * denotes statistically significant difference (t-test (p<0.05)).\nRelative concentrations of phospho-p65 in placental homogenates collected from gestation day 16 mice 6 hours after intrauterine injection of 250 μg LPS+vehicle or 250 μg LPS+4 μg 15d-PGJ2. * denotes statistically significant difference (t-test (p<0.05)).\nSurgery was performed on timed pregnant MF1 mice at day 16 of gestation. After deep maternal anaesthesia was attained, a minilaparotomy was performed in the lower abdomen. The uterine horns were exposed through the incision and preterm labour was induced by the intrauterine injection of […] lipopolysaccharide (LPS, Sigma) into the gravid horn. This was immediately followed by injection of 4 μg […] (Cayman), or an equal volume of vehicle (methyl acetate), at the same site. The uterus was then returned to the abdomen and the fascia and skin were closed with continuous vicryl sutures.\nMice were sacrificed 6 hours after injection of LPS±15d-PGJ2. Placentae were washed in phosphate buffered saline (PBS), flash frozen in liquid nitrogen and stored at −80° C. until further processing. Fetuses were washed in PBS, then immediately fixed in 4% paraformaldehyde for 24 h and then stored in 70% ethanol until further processing. Placentae were homogenized for 1 minute in the presence of lysis buffer comprising 400 mM KCl, 20 mM HEPES pH7.4, 1 mM dithiothreitol, 20% glycerol and 5% (v/v) protease inhibitor cocktail.\nHomogenate levels of Interleukin-1β (IL-1β) and tumour necrosis factor α (TNFα) were determined in placental lysates by ELISA (R and D systems) according to manufacturers instructions. Total protein concentrations were determined for each homogenate and IL-1β and TNFα levels were expressed as pg/mg total protein. […] Phosphorylated p65 (phospho-p65) was detected by western immunoblotting using a specific antibody (Santa Cruz) and quantified by densitometric analysis."}, "[2]": {"settings": "proximal placentae, gestation day 16 mice, 6 hours after intrauterine 250 μg LPS+4 μg 15d-PGJ2, p<0.05"}}, "data": [{"molecule": "CCCCCC=CC=C1C(=O)C=C[C@@H]1CC=CCCCC(=O)O", "note": "[15d-PGJ2, 15-deoxy-Δ^12,14prostaglandin J2]", "values": [{"measurement": "PPAR-γ protein expression", "setting": "PPAR-γ", "result": "not affected"}, {"measurement": "IL-1β-induced IκBα and IκBβ degradation", "setting": "NF-κB", "result": "inhibition"}, {"measurement": "IL-1β-induced p50 phosphorylation", "setting": "NF-κB", "result": "inhibited"}, {"measurement": "IL-1β-induced p65 nuclear translocation", "setting": "NF-κB", "result": "inhibited"}, {"measurement": "TNFα levels according to drug treatment", "setting": "[1]; placentae, 6 hours after intrauterine LPS+15d-PGJ2 vs LPS+ vehicle", "result": "not significantly altered"}, {"measurement": "Levels of IL-1β lower than LPS+ vehicle", "setting": "[1]; [2]", "result": "approximately 40%"}, {"measurement": "phospho-p65 levels lower than LPS+ vehicle", "setting": "[1]; [2]", "result": "approximately 35%"}]}]}
